The text below walks through data of PubChem BioAssay AID212 (DTP/NCI, 2004).

Several values for one entry are separate records, joined by “and”; a condition that tells them apart may be missing. Equal entries are not always repeated. Inconclusive results are not listed.

The subject of the test is BDF1 mice, colon carcinoma 38 sc, T/C %. The experiment in a line: NCI In Vivo Anticancer Drug Screen. Data for tumor model Colon Carcinoma 38 (subcutaneous) in B6D2F1 (BDF1) mice. Particulars: endpoint: median tumor weight (est.), higher = larger tumour. The method in brief:
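Transplantable tumor in mice; compound-treated vs vehicle-dosed controls. Measured survival or tumor size; value = T ÷ C.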

[1] abbreviates: dose: 12.5 mg/kg/injection, schedule: Q07DX003 (ip), vehicle: Klucel (hydroxypropylcellulose) (HPC).
Setting [2] is: dose: 25.0 mg/kg/injection, schedule: Q07DX003 (ip), vehicle: Klucel (hydroxypropylcellulose) (HPC).
Setting [3] is: dose: 12.5 mg/kg/injection, schedule: Q07DX002 (ip), vehicle: saline with Tween-80.
[4] abbreviates: dose: 100.0 mg/kg/injection, schedule: Q07DX002 (ip), vehicle: saline with Tween-80.
[5] abbreviates: dose: 200.0 mg/kg/injection, schedule: Q07DX002 (ip), vehicle: saline with Tween-80.
[6] abbreviates: dose: 400.0 mg/kg/injection, schedule: Q07DX002 (ip), vehicle: saline with Tween-80.
The mark [7] stands for this setting: dose: 6.25 mg/kg/injection, schedule: Q07DX002 (ip), vehicle: saline with Tween-80.
[8] abbreviates: dose: 25.0 mg/kg/injection, schedule: Q07DX002 (ip), vehicle: saline with Tween-80.
Where [9] appears, read: dose: 50.0 mg/kg/injection, schedule: Q07DX002 (ip), vehicle: saline with Tween-80.
Where [10] appears, read: dose: 25.0 mg/kg/injection, schedule: Q07DX002 (ip), vehicle: Klucel (hydroxypropylcellulose) (HPC).
The mark [11] stands for this setting: dose: 50.0 mg/kg/injection, schedule: Q07DX002 (ip), vehicle: Klucel (hydroxypropylcellulose) (HPC).
Where [12] appears, read: dose: 100.0 mg/kg/injection, schedule: Q07DX002 (ip), vehicle: Klucel (hydroxypropylcellulose) (HPC).
Where [13] appears, read: dose: 200.0 mg/kg/injection, schedule: Q07DX002 (ip), vehicle: Klucel (hydroxypropylcellulose) (HPC).
Setting [14] is: dose: 50.0 mg/kg/injection, schedule: Q07DX002 (ip), vehicle: saline.
The mark [15] stands for this setting: dose: 100.0 mg/kg/injection, schedule: Q07DX002 (ip), vehicle: saline.
Where [16] appears, read: dose: 200.0 mg/kg/injection, schedule: Q07DX002 (ip), vehicle: saline.
Setting [17] is: dose: 25.0 mg/kg/injection, schedule: Q07DX002 (ip), vehicle: saline.

For the compound `C/C(=C\c1ccccc1)[N+](=O)[O-]`, the T/C is, setting by setting: under setting [1], 81 % of control; under setting [2], 79 % of control and 91 % of control; (dose: 50.0 mg/kg/injection, schedule: Q07DX003 (ip), vehicle: Klucel (hydroxypropylcellulose) (HPC)) 82 % of control and 90 % of control.
On to `O=C(N/N=C\c1cc(Br)cc(Br)c1O)N/N=C/c1cc(Br)cc(Br)c1O`, for which the T/C by setting is: under setting [3], 119 % of control; under setting [4], 90 % of control; under setting [5], 102 % of control; under setting [6], 92 % of control.
`COc1cc(Cc2nccc3cc(OC)c(OC)cc23)c(C(C)=O)cc1OC`: the T/C (dose: 12.5 mg/kg/injection, schedule: Q07DX002 (ip), vehicle: suspension in saline) is 166 % of control; the T/C (dose: 25.0 mg/kg/injection, schedule: Q07DX002 (ip), vehicle: suspension in saline) was 108 % of control; the T/C (dose: 50.0 mg/kg/injection, schedule: Q07DX002 (ip), vehicle: suspension in saline) was 110 % of control; the T/C (dose: 100.0 mg/kg/injection, schedule: Q07DX002 (ip), vehicle: suspension in saline) was 69 % of control.
Take `Cc1cc(O)c2c(c1O)C(=O)c1cccc(O)c1C2=O`: the T/C reads like this: (dose: 0.18 mg/kg/injection, schedule: Q07DX002 (ip), vehicle: Klucel (hydroxypropylcellulose) (HPC)) 86 % of control; (dose: 0.37 mg/kg/injection, schedule: Q07DX002 (ip), vehicle: Klucel (hydroxypropylcellulose) (HPC)) 60 % of control; (dose: 0.75 mg/kg/injection, schedule: Q07DX002 (ip), vehicle: Klucel (hydroxypropylcellulose) (HPC)) 59 % of control; (dose: 1.5 mg/kg/injection, schedule: Q07DX002 (ip), vehicle: Klucel (hydroxypropylcellulose) (HPC)) 110 % of control.
Regarding `O=Cc1ccc([N+](=O)[O-])s1`, the T/C was 124 % of control and 108 % of control under setting [7]; 108 % of control under setting [8]; 57 % of control under setting [9].
On to `C=C(C)[C@@H]1CCc2c(O)c(O)c(=O)cc(C)c2C1`, for which the T/C runs as follows: under setting [10], 102 % of control; under setting [11], 64 % of control; under setting [12], 85 % of control; under setting [13], 96 % of control; (dose: 400.0 mg/kg/injection, schedule: Q07DX002 (ip), vehicle: Klucel (hydroxypropylcellulose) (HPC)) 102 % of control.
In the case of `O=C1CN(Cc2ccc3c(c2)OCO3)NO1`, the T/C was 76 % of control and 89 % of control under setting [3]; 81 % of control and 84 % of control under setting [8].
With `CC(=O)OCC(=O)[C@@]12OC(C)(C)O[C@@H]1C[C@H]1[C@@H]3CC(C=O)=C4C=C(OCCCl)CC[C@]4(C)[C@@]3(F)[C@@H](O)C[C@@]12C`, the T/C is, setting by setting: (dose: 12.5 mg/kg/injection, schedule: Q07DX002 (ip), vehicle: Klucel (hydroxypropylcellulose) (HPC)) 86 % of control; under setting [1], 62 % of control and 76 % of control; under setting [10], 58 % of control; under setting [2], 33 % of control and 57 % of control; under setting [11], 86 % of control; under setting [12], 94 % of control. Further, the T/C is 57 % of control (dose: 100.0 mg/kg/injection, schedule: Q07DX003 (ip), vehicle: Klucel (hydroxypropylcellulose) (HPC)); 54 % of control under setting [13]; 48 % of control (dose: 200.0 mg/kg/injection, schedule: Q07DX003 (ip), vehicle: Klucel (hydroxypropylcellulose) (HPC)).
Take `NCCOCC(N)C(=O)O` (stereo not given): the T/C (dose: 125.0 mg/kg/injection, schedule: Q07DX002 (ip), vehicle: saline) is 112 % of control; the T/C (dose: 250.0 mg/kg/injection, schedule: Q07DX002 (ip), vehicle: saline) was 84 % of control; the T/C (dose: 500.0 mg/kg/injection, schedule: Q07DX002 (ip), vehicle: saline) is 107 % of control; the T/C (dose: 1000.0 mg/kg/injection, schedule: Q07DX002 (ip), vehicle: saline) was 107 % of control.
`N=C(N)CCNC(=O)C1CCC(N)=N1` (stereo not given): the T/C is 97 % of control (dose: 3.38 mg/kg/injection, schedule: Q07DX002 (ip), vehicle: saline); 115 % of control (dose: 6.75 mg/kg/injection, schedule: Q07DX002 (ip), vehicle: saline); 120 % of control (dose: 13.5 mg/kg/injection, schedule: Q07DX002 (ip), vehicle: saline); 91 % of control (dose: 27.0 mg/kg/injection, schedule: Q07DX002 (ip), vehicle: saline).
`Brc1ccc(C[N+]23CN4CN(CN(C4)C2)C3)cc1`: the T/C reads like this: (dose: 12.5 mg/kg/injection, schedule: Q07DX003 (ip), vehicle: saline with Tween-80) 121 % of control; (dose: 25.0 mg/kg/injection, schedule: Q07DX003 (ip), vehicle: saline with Tween-80) 79 % of control; (dose: 50.0 mg/kg/injection, schedule: Q07DX003 (ip), vehicle: saline with Tween-80) 108 % of control; (dose: 100.0 mg/kg/injection, schedule: Q07DX003 (ip), vehicle: saline with Tween-80) 95 % of control; (dose: 200.0 mg/kg/injection, schedule: Q07DX003 (ip), vehicle: saline with Tween-80) 62 % of control.
Consider `NC(=S)N/N=C/c1ccc(OC(=O)COc2ccc(Cl)cc2)cn1`, for which the T/C is 61 % of control under setting [3]; 77 % of control under setting [8]; 119 % of control under setting [9]; 89 % of control under setting [4]; 81 % of control under setting [5]; 70 % of control under setting [6].
In the case of `O=NN(CCCl)C(=O)NC1OC(CO)C(O)C(O)C1O` (stereo not given), the T/C was 114 % of control and 96 % of control (dose: 2.5 mg/kg/injection, schedule: Q07DX002 (ip), vehicle: saline); 88 % of control and 92 % of control (dose: 8.0 mg/kg/injection, schedule: Q07DX002 (ip), vehicle: saline); 34 % of control and 58 % of control (dose: 16.0 mg/kg/injection, schedule: Q07DX002 (ip), vehicle: saline).
Take `CCC(C(=O)O)C(=O)O.[NH2-].[NH2-].[Pt+2]`: the T/C under setting [14] was 46 % of control, the T/C under setting [15] is 19 % of control and the T/C under setting [16] was 2 % of control.
On to `C1CC[N-]CC1.C1CC[N-]CC1.C1CC[N-]CC1.[Cl][Rh]([Cl])[Cl]`, for which the T/C is 105 % of control under setting [17]; 120 % of control and 124 % of control under setting [15]; 92 % of control under setting [16].
Take `O=c1cc(CCl)[nH]nc1CCl`: the T/C (dose: 3.12 mg/kg/injection, schedule: Q07DX002 (ip), vehicle: saline with Tween-80) was 119 % of control; the T/C under setting [7] is 91 % of control; the T/C under setting [3] is 93 % of control.
For the compound `Cc1cc2c(=O)cc(-c3ccccc3Cl)oc2c(C(=O)O)c1C`, the T/C runs as follows: (dose: 100.0 mg/kg/injection, schedule: Q07DX002 (ip), vehicle: sodium bicarbonate) 56 % of control; (dose: 200.0 mg/kg/injection, schedule: Q07DX002 (ip), vehicle: sodium bicarbonate) 35 % of control; (dose: 400.0 mg/kg/injection, schedule: Q07DX002 (ip), vehicle: sodium bicarbonate) 40 % of control.
In the case of `O=C(NC1CCCCC1)OCc1c(COC(=O)NC2CCCCC2)c(-c2ccc(Cl)c(Cl)c2)n2c1CCC2`, the T/C by setting is: under setting [3], 111 % of control; under setting [8], 85 % of control; under setting [9], 76 % of control; under setting [4], 95 % of control; under setting [5], 86 % of control; under setting [6], 80 % of control.
With `c1csc(C[N+]23CN4CN(CN(C4)C2)C3)c1`, the T/C was 77 % of control under setting [17]; 108 % of control under setting [14]; 81 % of control under setting [15]; 97 % of control under setting [16]; 112 % of control (dose: 400.0 mg/kg/injection, schedule: Q07DX002 (ip), vehicle: saline).
Turning to `OC1(CSc2ccccc2)CCCCC1`, the T/C runs as follows: under setting [8], 93 % of control; under setting [9], 47 % of control; under setting [4], 97 % of control; under setting [5], 87 % of control; under setting [6], 77 % of control.
Turning to `CC1=C(/C=C/C(C)=C/C=C/C(C)=C/C=O)C(C)(C)CCC1`, the T/C under setting [4] is 116 % of control.
